Molecules are shown by their SMILES.

This is an account of results in publication PMC10745422, “Absorption, Distribution, Metabolism, and Excretion of [^14C]BS1801, a Selenium-Containing Drug Candidate, in Rats” (Molecules, 2023).

The subject of one series is albumin. Also on record: method as in PMID 17363345, PMID 7945407. Conditions: cited from earlier work.
A short description of series [1]: Biliary excretion of radioactivity in bile duct cannulated (BDC) rats. The note with it: BDC SD rats, single intragastric 100 mg/kg, within 72 h. In kind it is in vivo, Sprague–Dawley (SD, Rattus norvegicus) rats. On the procedure: (§1) BS1801 and [^14C]BS1801 were prepared in 0.5% sodium carboxymethyl cellulose solution at a target concentration of 10 mg/mL (10 μCi/mL). The radioactivity of [^14C]BS1801 was measured using a liquid scintillation counter (LSC) (Hidex, Turku, Finland) before and after administration, and a single dose of 10 mL/kg was administered orally.
Bile duct cannulation (BDC) was performed in 3 male and 3 female SD rats before drug administration. After the operation, the wounds were wiped with iodophor for 2 days, and painkillers were administered appropriately. The state of the rats was observed daily, and the drug was administered only when no abnormality was observed within 2 days. Bile was collected before and 0–4, 4–8, 8–24, 24–48, and 48–72 h after dosing. The weights of the bile samples were recorded, and the samples were stored at −20 °C until testing.
(§2) Samples of urine (100 μL), bile (30 μL), and plasma (100 μL from the tissue distribution study) were weighed and added to 15 mL scintillation solution. Among them, urine and bile samples were duplicated, and plasma samples were in singlicate. The radioactivity was measured directly via LSC.

A further series has as its system human serum albumin. Also noted: method as in PMID 35149420. Conditions: covalent binding, unstable; cited from earlier work.
Series [2] in a line: Metabolite radio-profiling and identification in pooled plasma, urine, feces and bile (UHPLC-β-RAM/UV/QE MS). In kind it is in vivo, Sprague–Dawley (SD, Rattus norvegicus) rats. On the procedure:
Three SD rats of each sex were used to obtain plasma samples. […] All samples were stored at −20 °C for analysis.
Then, 3 mL of methanol/water (50:50, v:v) was slowly added to the pooled plasma (1 mL), followed by vortexing for 1 min and sonication for 10 min twice. Then, the upper extract and the lower precipitate were separated by centrifugation (5000 rpm, 10 min). The supernatant was transferred to another new centrifuge tube. Then, 1 mL of water was added to the precipitate, vortexed for 1 min, and sonicated for 10 min. Then, 2 mL of methanol/acetonitrile (50:50, v:v) was added to the mixture, two vortexes were performed for 1 min, and the mixture was ultrasonicated for 10 min, followed by centrifugation (5000 rpm, 10 min). The two-times supernatant extracts were combined and dried under a nitrogen stream and finally redissolved with acetonitrile/water (20:80, v:v). The recoveries of extraction and reconstitution processes were measured via LSC.
The pooled urine was vortexed and centrifuged (5000 rpm, 10 min). After centrifugation, the supernatant was dried under a nitrogen stream and then redissolved in acetonitrile/water (20:80, v:v).
The pooled fecal homogenate (1 g) was extracted by using the same method as for the plasma. The supernatant was then evaporated under a nitrogen stream and redissolved in 300 μL acetonitrile/water (20:80, v:v).
An ACQUITY UPLC BEH Pheny column (100 × 2.1 mm, 1.7 μm) with a Phenomenex KrudKatcher Ultra HPLC In-Line Filter guard column (2 µm, Depth Filter × 0.004 in ID) was used to perform metabolite radio-profiling and characterization on the Vanquish UHPLC system, which was combined with a QExactive Plus mass spectrometer (Thermo, Waltham, MA, USA) containing an electrospray ionization (ESI) source. The column temperature was 40 °C, and the flow rate was 0.45 mL/min. The mobile phases contained 5 mM ammonium acetate with 0.1% formic acid in water (A) and acetonitrile (B). […] The mass spectrometer was operated in positive (+ESI) mode with a m/z 100–1500 Da scanning range. The optimized MS parameters were as follows: sheath gas, 35 L/min; auxiliary gas, 10 L/min; capillary temperature, 320 °C; and spray voltage, 3.8 kV. Data acquisition was performed using Xcalibur 4.1 software (Thermo, Waltham, MA, USA), and data analysis was accomplished using Compound Discoverer software 3.3 SP2 (Thermo, Waltham, MA, USA).
The extracted plasma, urine, feces, and bile samples were separated via UHPLC and detected using an online/offline radioactivity detector to obtain the corresponding radioactive metabolite profiles. Due to low radioactivity of plasma, the UHPLC eluent was collected using a UHPLC fraction collector (Thermo, Waltham, MA, USA) over time (10 s/well) on Deepwell LumaPlateTM 96-well plates. After evaporation via a vacuum centrifuge concentrator, the radioactivity was determined with an offline Sense Beta detector (1 min/well, Hidex, Turku, Finland). For the urine, feces, and bile samples, the UHPLC eluent was analyzed using an online radioactivity detector β-RAM. Radioactive metabolite profiling was integrated to obtain the radio-chromatogram with Laura 6.0.5.101 software (Lablogic, Sheffield, UK). The percentage of each metabolite in urine, feces, and bile (%dose) and the ratio of metabolites in the plasma (% area under the curve, %AUC) were calculated.

Series [3] can be described thus: Mass balance: excretion of radioactivity in urine and feces after a single oral dose of [^14C]BS1801. In kind it is in vivo, Sprague–Dawley (SD, Rattus norvegicus) rats. On the procedure:
as §1
Three male and three female SD rats were housed individually in metabolic cages. Urine samples were collected from each rat at predose and 0–8, 8–24, 24–48, 48–72, 72–96, 96–120, 120–144, and 144–168 h postdose. When each urine sample was collected, the metabolic cage was flushed with a small amount of water for 0–72 h and methanol/water (50:50, v:v) for 72–168 h, and the flushing solution was added to the urine sample for the corresponding period. Fecal samples were also collected at predose and 0–24, 24–48, 48–72, 72–96, 96–120, 120–144, and 144–168 h postdose. Urine and fecal samples were weighed and recorded during each collection period. All samples were stored at −20 °C for testing.
as §2
(§3) Approximately three times the weight of methanol/water (50:50, v:v) was added to each fecal sample and homogenized with a homogenizer (SKGZ, Shanghai Biheng, Shanghai, China). Approximately 0.2~0.3 g of the fecal homogenate was weighed in a combustion boat, and dried overnight. Blood samples (100 μL) and tissue samples (approximately 0.1 g) were weighed into burning boats. After the samples were completely dried, they were combusted using a Biological Sample Oxidizer (OTCS-11/1, Shanghai Yixing, Shanghai, China). The ^14CO2 generated was captured with 15 mL alkaline scintillation solution; then, the radioactivity was measured using LSC.

A short description of series [4]: Tissue distribution of radioactivity after a single oral dose of [^14C]BS1801. In kind it is in vivo, Long–Evans (LE, Rattus norvegicus) rats. The note with it: total radioactivity. As for the experimental part: as §1
Twenty-four LE rats (12 of each sex) were used for tissue distribution studies. Three male and three female rats were sacrificed through abdominal aortic bleeding at 2, 10, 48, and 96 h after administration. Approximately 1/5 of the blood was stored frozen at −20 °C, and the remaining blood was centrifuged (3500× g, 5 min, 4 °C) to obtain plasma. The brain, heart, lung, liver, stomach wall, spleen, kidney, muscle, pigmented fat, ovary, womb, testis, bladder wall, pancreas, small intestine wall, large intestine wall, eye, pigmented skin, thymus, spinal cord, and marrow were also collected. The tissues were washed with saline, dried, and stored at −20 °C until testing.
as §2, §3

Setting [5] is: 0–96 h pooled female SD rat urine.
[6] abbreviates: AUC0–72h pooled female SD rat plasma.
Where [7] appears, read: AUC0–72h pooled male SD rat plasma.
[8] abbreviates: SD rats, single oral 100 mg/kg, 0 to 168 h.

As for `O=c1c2ccccc2[se]n1CCn1[se]c2ccccc2c1=O` [BBSKE, 1,2-[bis(1,2-benzisoselenazolone-3 (2H)-ketone)]-ethane], in the series with albumin, the “binding rates with albumin” value is reported as “high”.
Consider `O=c1c2ccccc2[se]n1CCCCn1[se]c2ccccc2c1=O` [BS1801], for which the “recovery of radioactivity in bile” value in series [1] came to 0.58%. The “binding to human serum albumin” value in the series on human serum albumin is “rapidly and thoroughly”. Besides, the amount in urine entry in series [2] (setting [5]) and in series [2] (0–96 h pooled male SD rat urine) was “not detected” each time. Further, the “share of total plasma radioactivity” value in series [2] (setting [6]) is on record as “undetected”; in series [2] (setting [7]), “not detected”. For the same compound, in series [2] (SD rat bile), the “detection of parent drug in bile” value is “not detected”. The “unchanged drug in rat feces” value in series [2] (SD rat feces, male and female) is “more than 75.00 % of the dose”. Besides, the “recovery of radioactivity in the supernatant after protein precipitation of pooled plasma” value in series [2] (female SD rats) turned out to be 91.23%; in series [2] (male SD rats), 105.85%. Moreover, the figures for the amount in feces in series [2] (pooled female SD rat feces (0–48 h)) and in series [2] (pooled male SD rat feces (0–48 h)) were 81.89 % of the dose and 76.97 % of the dose, respectively. Besides, the “absorption in rats (inferred from urine and bile recovery)” value in series [3] (SD rats, single oral 100 mg/kg) was “not well absorbed”. Further, in series [3] (SD rats, single oral 100 mg/kg), the “radioactive recovery in either urine or bile” value is given as “less than 1 % of the dose”. The “mean radioactive recovery in urine and feces” value in series [3] (SD rats, single oral 100 mg/kg (100 μCi/kg), 0 to 168 h) came to 93.39%; in series [3] (SD rats, single oral 100 mg/kg, within 0–48 h), 91.57%. In addition, the “cumulative excretion of radioactive substances in feces” value was 92.77 % of the dose in series [3] (setting [8]), 93.22 % of the dose in series [3] (female SD rats) and 92.32 % of the dose in series [3] (male SD rats). Also, the “cumulative excretion of radioactive substances in urine” value in series [3] (setting [8]) is on record as 0.62 % of the dose. The “ratio of AUC0–96h of brain to that of plasma, rank among analyzed tissues” value in series [4] (brain, LE rats) is on record as “the lowest”. In addition, the “ratio of tissue AUC0–96h to plasma AUC0–96h” value in series [4] (eyes, male LE rats) is on record as 5.35; in series [4] (large intestine, female LE rats), 16.82; in series [4] (large intestine, male LE rats) it was 7.48; in series [4] (liver, female LE rats) it was 6.59; in series [4] (liver, male LE rats), 11.80; in series [4] (stomach, male LE rats), 10.60. For the same compound, the “average ratio of blood AUC0–96h to plasma AUC0–96h” value in series [4] (female LE rats) was 0.45; in series [4] (male LE rats), 0.73. Besides, the “ratios of other tissues AUC0–96h to plasma AUC0–96h” value in series [4] (other tissues, all rats) is reported as “lower than 5.00”.
In the case of `O=c1c2ccccc2[se]n1-c1ccccc1` [ebselen, 2-phenyl-1,2-benzisoselenazol-3(2H)-one], the “binding rates with albumin” value in the series with albumin is listed as “high”.
Take `C[Se]c1ccccc1C(=O)NCCCCNC(=O)c1ccccc1[Se]C` [M2]: the “share of total plasma radioactivity” value was 81.33 % of the total plasma radioactivity in series [2] (setting [6]) and 65.41 % of the total radioactivity in series [2] (setting [7]).
In the case of `C[Se]c1ccccc1C(=O)NCCCCN` [M286], the amount in urine in series [2] (setting [5]) is given as 0.20 % of the dose. For the same compound, in series [2] (pooled 0–48 h male SD rat bile), the amount in bile entry is on record as “less than 0.1 % of the dose”.
